Source: US8642630B2, “Endogeneous repair factor production accelerators” (Ono Pharmaceutical Co., Ltd., priority 2002, dated 2014)

Tests used:
Format in all cases: in vivo
[1] = test system: rat leg ischemia (arteriosclerosis obliterans (ASO)) model; experiment: Angiogenesis test using rat leg ischemia (ASO) model, Example 4
Experimental: (§1) Leg ischemia model was prepared by ligating rat left femoral artery. Blood flow in hind legs was measured by using Laser Doppler Imager (Moor Instruments) 2 weeks after the preparation, and the animals were divided into 6 groups (n=5) in such a manner that the average value of blood flow became almost uniform.
(§2) Starting on the next day of the grouping, 0.1 ml/site, 2 sites, of the agent to be tested was administered by intramuscular injection into the left femoral adductor, for once a week, 4 times in total as a solution to be tested. One week after completion of the final administration, blood flows of hind legs were measured by using Laser Doppler Imager (Moor Instruments), and blood flows of the treated leg (left leg) and untreated leg (right leg) were compared and examined.
In this connection, construction of the solution to be tested is as follows. Solvent (control) group: 0.2 w/v % Tween 80 solution (0.2 ml).
(§3) • The polylactic acid-glycolic acid copolymer used in Preparation Example 2 was suspended in 0.2 w/v % Tween 80 solution (0.2 ml). In this connection, amount of the polylactic acid-glycolic acid copolymer is identical to the amount contained in the Compound 1 MS (1 mg). Compound 1 (1 mg) Group: • Compound 1 (1 mg) was suspended in 0.2 w/v % Tween 80 solution (0.2 ml). […]

[2] = test system: rat leg ischemia (arteriosclerosis obliterans (ASO)) model; experiment: Rat leg ischemia (ASO) model; usefulness of topical administration, Example 6; details: 0.1 mg, intramuscular administration into the ischemic left femoral part
Experimental: as §1, with “1 week” for “2 weeks”, “4” for “6”
as §2, with “into ischemic regions of” for “into”, “adductor (polymer group, Compound 1 group, Compound 1 MS group) and normal region of the right shoulder upper arm (Compound 1 MS group),” for “adductor,”
as §3, with “in” for “in the”, “1 (0.1” for “1 (1”

[3] = test system: mouse sponge transplantation model; experiment: Angiogenesis test using mouse sponge transplantation model, Example 8; details: for Hemoglobin content / Sponge wet weight: 15th day; for hemoglobin concentration in the granulation tissue, in words: vs polymer group
Experimental: Under anesthesia, dorsal part of a mouse was incised and a discus urethane sponge (about 5 mm in thickness and 13 mm in diameter) was embedded therein. Administration of the agent was carried out by topically administering it directly into the sponge once a day for a total of 14 times starting on the day of the sponge transplantation model preparation, or on the operation-completed day and 7th day thereafter. On the 15th day after the sponge transplantation, the sponge containing granulation tissue was extracted and observed with the naked eye, and then its wet mass was measured. In addition, this was mixed with distilled water of 4 times larger amount than the wet mass, homogenized and centrifuged, and then the supernatant was subjected to the measurement of the hemoglobin content using Hemoglobin 13-Test Wako (manufactured by Wako Pure Chemical Industries).
• The polylactic acid-glycolic acid copolymer used in Preparation Example 2 was suspended in 0.2 w/v % Tween 80 solution (0.05 ml). In this connection, amount of the polylactic acid-glycolic acid copolymer is identical to the amount contained in Compound 1 MS (200 μg). Compound 1 (20 μg) Group: • Compound 1 (20 μg) was suspended in 0.2 w/v % Tween 80 solution (0.05 ml). Compound 1 (40 μg) Group:
Compound 1 (40 μg) was suspended in 0.2 w/v % Tween 80 solution (0.05 ml).
• Compound 1 (200 μg) was suspended in 0.2 w/v % Tween 80 solution (0.05 ml). Compound 1 MS (200 μg) group: • The microsphere preparation produced in Preparation Example 2 containing […] of Compound 1 was suspended in 0.2 w/v % Tween 80 solution (0.05 ml). Compound 1 MS (400 μg) Group: • The microsphere preparation produced in Preparation Example 2 containing 400 μg of Compound 1 was suspended in 0.2 w/v % Tween 80 solution (0.05 ml). Compound 3 (20 μg) Group: • Compound 3 (20 μg) was suspended in 0.2 w/v % Tween 80 solution (0.05 ml).

[4] = 20 μg into the sponge once a day, 14 days of repeated administration
[5] = 40 μg into the sponge once a day, 14 days of repeated administration
[6] = 200 μg into the sponge, two administrations at 7 day intervals

## O=C(O)COc1cccc2c1CCC=C2CCO/N=C(\c1ccccc1)c1cccnc1 [Compound 1, (E)-[5-[2-[1-phenyl-1-(3-pyridyl)methylideneaminoxy]ethyl]-7,8-dihydronaphthalen-1-yloxy]acetic acid]
[1]; 1 mg as Compound 1, i.m. left femoral adductor once a week x4, 1 week after final administration
  Treated leg/untreated leg blood flow ratio: 76.2 ± 2.8 %
[1]; 1 mg, i.m. once a week x4, vs Control / polymer group
  blood flow improving effect, in words: significant recovery of blood flow against Control
[2]
  increase in the blood flow, in words: significant blood flow increasing action was not observed
[2]; once a week x4, 1 week after final administration
  Treated leg/untreated leg blood flow ratio: 60.5 ± 3.1%
[3]; [4]
  Hemoglobin content: 2.403 ± 0.533 mg/g wet tissue
  Sponge wet weight: 0.3843 ± 0.0681 g
[3]; 20 μg, 14 days of repeated administration
  hemoglobin concentration in the granulation tissue, in words: showed an increasing tendency, but is not a significant increase
[3]; [5]
  Hemoglobin content: 3.010 ± 0.808 mg/g wet tissue
  Sponge wet weight: 0.5136 ± 0.0938 g
[3]; 40 μg, 14 days of repeated administration
  hemoglobin concentration in the granulation tissue, in words: showed an increasing tendency, but is not a significant increase
[3]; [6]
  Hemoglobin content: 1.964 ± 0.289 mg/g wet tissue
  Sponge wet weight: 0.4123 ± 0.0320 g
[3]; 200 μg, two administrations at 7 day intervals
  hemoglobin concentration in the granulation tissue, in words: did not increase
